The values below come from paper PMC9250534, “Synthesis and direct assay of large macrocycle diversities by combinatorial late-stage modification at picomole scale” (Nature Communications, 2022).

The target in the assay is MDM2 (Homo sapiens, UniProt Q00987). The assay can be described thus: MDM2 binding screen of Libraries 3 and 4: displacement of fluorescent probe F-M8 at 750 nM macrocycle. Conditions: Panel b, Library 3: 63 scaffolds combinatorially acylated with 15 carboxylic acids at 30 picomole scale; displacement of fluorescent peptide probe; macrocycle 750 nM. Here is the method: The cyclic peptide scaffolds required for Libraries 3 and 4 were synthesized as described for those used in Library 2. Due to the presence of many N-methylated amino acids which are more difficult to couple, 200 mM HOAt was applied together with HATU. The scaffolds were diluted to 2 mM in DMSO, and 15 nL were transferred using acoustic dispensing, followed by 15 nL DMSO containing carboxylic acids (40 mM, 20 equiv.), HBTU (40 mM) and DABCO (40 mM). After 6 h reaction at room temperature, 370 nL of DMSO was added to each well, followed by 5 μL of 100 mM Tris-Cl pH 7.4 containing 0.01% v/v Tween20, for quenching overnight.
MDM2, sequence (Q00987 whole entry): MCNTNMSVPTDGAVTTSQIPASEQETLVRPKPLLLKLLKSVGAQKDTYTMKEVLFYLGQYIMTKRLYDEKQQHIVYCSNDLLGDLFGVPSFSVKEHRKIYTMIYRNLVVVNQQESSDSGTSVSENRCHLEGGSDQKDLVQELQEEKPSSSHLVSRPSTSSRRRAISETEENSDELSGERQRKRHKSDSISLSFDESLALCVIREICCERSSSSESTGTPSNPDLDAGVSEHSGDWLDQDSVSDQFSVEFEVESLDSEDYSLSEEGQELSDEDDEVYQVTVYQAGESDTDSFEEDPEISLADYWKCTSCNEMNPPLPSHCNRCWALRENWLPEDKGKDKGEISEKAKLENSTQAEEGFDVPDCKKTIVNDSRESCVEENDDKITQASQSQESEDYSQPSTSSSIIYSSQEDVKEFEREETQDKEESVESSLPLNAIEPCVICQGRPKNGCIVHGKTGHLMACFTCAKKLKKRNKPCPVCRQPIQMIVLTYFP
As to `O=C1CCSSCCNC(=O)[C@H](Cc2c[nH]c3ccccc23)NC(=O)[C@@H](CNC(=O)c2ccc3ccccc3c2)NC(=O)C2(CC2)CN1` [X-Amcp-D-Dap-Trp + Acid 107], the “fraction of fluorescent probe displaced” value worked out at 0.024. As to `O=C(/C=C/c1ccc(OCc2ccccc2)cc1)NC[C@H]1NC(=O)C2(CC2)CNC(=O)CCSSCCNC(=O)[C@H](Cc2c[nH]c3ccccc23)NC1=O` [X-Amcp-D-Dap-Trp + Acid 110], the “fraction of fluorescent probe displaced” value was found to be 0.015. In the case of `O=C1CCSSCCNC(=O)[C@H](Cc2c[nH]c3ccccc23)NC(=O)[C@@H](CNC(=O)c2cccc(Oc3ccccc3)c2)NC(=O)C2(CC2)CN1` [X-Amcp-D-Dap-Trp + Acid 111], the “fraction of fluorescent probe displaced” value turned out to be 0.008. Turning to `O=C(/C=C/c1ccc2ccccc2c1)NC[C@H]1NC(=O)C2(CC2)CNC(=O)CCSSCCNC(=O)[C@H](Cc2c[nH]c3ccccc23)NC1=O` [X-Amcp-D-Dap-Trp + Acid 112], the “fraction of fluorescent probe displaced” value is -0.00533. For `O=C1CCSSCCNC(=O)[C@H](Cc2cccc3ccccc23)NC(=O)[C@H](CNC(=O)c2ccc(Cl)s2)NC(=O)C2(CC2)CN1` [X-Amcp-Dap-1-NaI + Acid 14] the value was -0.019.

In the case of `O=C1CCSSCCNC(=O)[C@H](Cc2cccc3ccccc23)NC(=O)[C@H](CNC(=O)c2ccc(Cl)cc2)NC(=O)C2(CC2)CN1` [X-Amcp-Dap-1-NaI + Acid 25], the “fraction of fluorescent probe displaced” value is 0.008. Take `O=C1CCSSCCNC(=O)[C@H](Cc2cccc3ccccc23)NC(=O)[C@H](CNC(=O)c2ccc3ccccc3c2)NC(=O)C2(CC2)CN1` [X-Amcp-Dap-1-NaI + Acid 107]: the “fraction of fluorescent probe displaced” value is recorded as -0.00844.

Turning to `O=C(/C=C/c1ccc(OCc2ccccc2)cc1)NC[C@@H]1NC(=O)C2(CC2)CNC(=O)CCSSCCNC(=O)[C@H](Cc2cccc3ccccc23)NC1=O` [X-Amcp-Dap-1-NaI + Acid 110], the “fraction of fluorescent probe displaced” value came to 0.00133.

For `O=C1CCSSCCNC(=O)[C@H](Cc2cccc3ccccc23)NC(=O)[C@H](CNC(=O)c2cccc(Oc3ccccc3)c2)NC(=O)C2(CC2)CN1` [X-Amcp-Dap-1-NaI + Acid 111], the “fraction of fluorescent probe displaced” value amounted to 0.008.

As for `CC(Oc1cccc(Cl)c1)C(=O)NC[C@@H]1NC(=O)C2(CC2)CNC(=O)CCSSCCNC(=O)[C@H](Cc2cccc3ccccc23)NC1=O` (stereo partly shown) [X-Amcp-Dap-1-NaI + Acid 113], the “fraction of fluorescent probe displaced” value is given as -0.012.

With `O=C(CCS(=O)(=O)c1ccccc1)NC[C@@H]1NC(=O)C2(CC2)CNC(=O)CCSSCCNC(=O)[C@H](Cc2cccc3ccccc23)NC1=O` [X-Amcp-Dap-1-NaI + Acid 114], the “fraction of fluorescent probe displaced” value is listed as -0.00533. For `O=C1CCSSCCNC(=O)[C@H](Cc2cccc3ccccc23)NC(=O)[C@H](CNC(=O)C2COc3ccccc3O2)NC(=O)C2(CC2)CN1` (stereo partly shown) [X-Amcp-Dap-1-NaI + Acid 115] the value was 0.00133. The result for `O=C1CCSSCCNC(=O)[C@H](Cc2ccc3ccccc3c2)NC(=O)[C@H](CNC(=O)C2CC2c2ccccc2)NC(=O)C2(CC2)CN1` (stereo partly shown) [X-Amcp-Dap-2-Nal + Acid 105] reads -0.034; that for `O=C(/C=C/c1ccncc1)NC[C@@H]1NC(=O)C2(CC2)CNC(=O)CCSSCCNC(=O)[C@H](Cc2ccc3ccccc3c2)NC1=O` [X-Amcp-Dap-2-Nal + Acid 106], -0.002. Consider `O=C1CCSSCCNC(=O)[C@H](Cc2ccc3ccccc3c2)NC(=O)[C@H](CNC(=O)c2ccc3ccccc3c2)NC(=O)C2(CC2)CN1` [X-Amcp-Dap-2-Nal + Acid 107], for which the “fraction of fluorescent probe displaced” value is on record as 0.031. `O=C(/C=C/c1ccc(Cl)cc1)NC[C@@H]1NC(=O)C2(CC2)CNC(=O)CCSSCCNC(=O)[C@H](Cc2ccc3ccccc3c2)NC1=O` [X-Amcp-Dap-2-Nal + Acid 108]: the “fraction of fluorescent probe displaced” value turned out to be 0.008. For the compound `O=C(/C=C/c1ccc(OCc2ccccc2)cc1)NC[C@@H]1NC(=O)C2(CC2)CNC(=O)CCSSCCNC(=O)[C@H](Cc2ccc3ccccc3c2)NC1=O` [X-Amcp-Dap-2-Nal + Acid 110], the “fraction of fluorescent probe displaced” value came to 0.041.

As to `O=C1CCSSCCNC(=O)[C@H](Cc2ccc3ccccc3c2)NC(=O)[C@H](CNC(=O)c2cccc(Oc3ccccc3)c2)NC(=O)C2(CC2)CN1` [X-Amcp-Dap-2-Nal + Acid 111], the “fraction of fluorescent probe displaced” value was 0.00133. As for `O=C(/C=C/c1ccc2ccccc2c1)NC[C@@H]1NC(=O)C2(CC2)CNC(=O)CCSSCCNC(=O)[C@H](Cc2ccc3ccccc3c2)NC1=O` [X-Amcp-Dap-2-Nal + Acid 112], the “fraction of fluorescent probe displaced” value turned out to be 0.015. As for `O=C1CCSSCCNC(=O)[C@H](Cc2c[nH]c3cc(Cl)ccc23)NC(=O)[C@H](CNC(=O)c2ccc3ccccc3c2)NC(=O)C2(CC2)CN1` [X-Amcp-Dap-Cl-Trp + Acid 107], the “fraction of fluorescent probe displaced” value came to 0.00455. On to `O=C(/C=C/c1ccc(Cl)cc1)NC[C@@H]1NC(=O)C2(CC2)CNC(=O)CCSSCCNC(=O)[C@H](Cc2c[nH]c3cc(Cl)ccc23)NC1=O` [X-Amcp-Dap-Cl-Trp + Acid 108], for which the “fraction of fluorescent probe displaced” value is recorded as 0.00133.

As to `O=C1CCSSCCNC(=O)[C@H](Cc2c[nH]c3cc(Cl)ccc23)NC(=O)[C@H](CNC(=O)c2cccc(Oc3ccccc3)c2)NC(=O)C2(CC2)CN1` [X-Amcp-Dap-Cl-Trp + Acid 111], the “fraction of fluorescent probe displaced” value was determined as 0.008. Take `O=C(/C=C/c1ccc2ccccc2c1)NC[C@@H]1NC(=O)C2(CC2)CNC(=O)CCSSCCNC(=O)[C@H](Cc2c[nH]c3cc(Cl)ccc23)NC1=O` [X-Amcp-Dap-Cl-Trp + Acid 112]: the “fraction of fluorescent probe displaced” value is recorded as 0.008. Regarding `O=C1CCSSCCNC(=O)[C@H](Cc2c[nH]c3cc(Cl)ccc23)NC(=O)[C@H](CNC(=O)C2COc3ccccc3O2)NC(=O)C2(CC2)CN1` (stereo partly shown) [X-Amcp-Dap-Cl-Trp + Acid 115], the “fraction of fluorescent probe displaced” value was -0.012. The result for `O=C1CCSSCCNC(=O)[C@@H](Cc2c[nH]c3ccccc23)NC(=O)[C@H](CNC(=O)C2CC2c2ccccc2)NC(=O)C2(CC2)CN1` (stereo partly drawn) [X-Amcp-Dap-D-Trp + Acid 105] reads -0.015; that for `O=C1CCSSCCNC(=O)[C@@H](Cc2c[nH]c3ccccc23)NC(=O)[C@H](CNC(=O)c2ccc3ccccc3c2)NC(=O)C2(CC2)CN1` [X-Amcp-Dap-D-Trp + Acid 107], 0.050; that for `O=C(/C=C/c1ccc(OCc2ccccc2)cc1)NC[C@@H]1NC(=O)C2(CC2)CNC(=O)CCSSCCNC(=O)[C@@H](Cc2c[nH]c3ccccc23)NC1=O` [X-Amcp-Dap-D-Trp + Acid 110], 0.008. Regarding `O=C1CCSSCCNC(=O)[C@@H](Cc2c[nH]c3ccccc23)NC(=O)[C@H](CNC(=O)c2cccc(Oc3ccccc3)c2)NC(=O)C2(CC2)CN1` [X-Amcp-Dap-D-Trp + Acid 111], the “fraction of fluorescent probe displaced” value was found to be 0.00133. For `O=C(/C=C/c1ccc2ccccc2c1)NC[C@@H]1NC(=O)C2(CC2)CNC(=O)CCSSCCNC(=O)[C@@H](Cc2c[nH]c3ccccc23)NC1=O` [X-Amcp-Dap-D-Trp + Acid 112] the value was 0.015; for `O=C(CCS(=O)(=O)c1ccccc1)NC[C@@H]1NC(=O)C2(CC2)CNC(=O)CCSSCCNC(=O)[C@@H](Cc2c[nH]c3ccccc23)NC1=O` [X-Amcp-Dap-D-Trp + Acid 114], 0.035; for `Cn1cc(C[C@@H]2NC(=O)[C@H](CNC(=O)c3ccc(Cl)s3)NC(=O)C3(CC3)CNC(=O)CCSSCCNC2=O)c2ccccc21` [X-Amcp-Dap-Me-Trp + Acid 14], 0.008. The result for `Cn1cc(CC2NC(=O)C(CNC(=O)C3CC3c3ccccc3)NC(=O)C3(CC3)CNC(=O)CCSSCCNC2=O)c2ccccc21` (stereo not shown) [X-Amcp-Dap-Me-Trp + Acid 105] reads -0.021; that for `Cn1cc(C[C@@H]2NC(=O)[C@H](CNC(=O)/C=C/c3ccc(Cl)cc3)NC(=O)C3(CC3)CNC(=O)CCSSCCNC2=O)c2ccccc21` [X-Amcp-Dap-Me-Trp + Acid 108], 0.008. `Cn1cc(C[C@@H]2NC(=O)[C@H](CNC(=O)/C=C/c3ccc(OCc4ccccc4)cc3)NC(=O)C3(CC3)CNC(=O)CCSSCCNC2=O)c2ccccc21` [X-Amcp-Dap-Me-Trp + Acid 110]: the “fraction of fluorescent probe displaced” value is on record as 0.008.

Regarding `Cn1cc(C[C@@H]2NC(=O)[C@H](CNC(=O)/C=C/c3ccc4ccccc4c3)NC(=O)C3(CC3)CNC(=O)CCSSCCNC2=O)c2ccccc21` [X-Amcp-Dap-Me-Trp + Acid 112], the “fraction of fluorescent probe displaced” value is 0.028.

For `Cn1cc(C[C@@H]2NC(=O)[C@H](CNC(=O)CCS(=O)(=O)c3ccccc3)NC(=O)C3(CC3)CNC(=O)CCSSCCNC2=O)c2ccccc21` [X-Amcp-Dap-Me-Trp + Acid 114], the “fraction of fluorescent probe displaced” value is listed as 0.041. The result for `Cn1cc(C[C@@H]2NC(=O)[C@H](CNC(=O)C3COc4ccccc4O3)NC(=O)C3(CC3)CNC(=O)CCSSCCNC2=O)c2ccccc21` (stereo partly shown) [X-Amcp-Dap-Me-Trp + Acid 115] reads 0.015. For `CN1C(=O)[C@H](CNC(=O)c2ccc(Cl)s2)NC(=O)C2(CC2)CNC(=O)CCSSCCNC(=O)[C@@H]1Cc1c[nH]c2ccccc12` [X-Amcp-Dap-NMe-Trp + Acid 14], the “fraction of fluorescent probe displaced” value is on record as -0.025. The result for `CN1C(=O)[C@H](CNC(=O)c2ccc(Cl)cc2)NC(=O)C2(CC2)CNC(=O)CCSSCCNC(=O)[C@@H]1Cc1c[nH]c2ccccc12` [X-Amcp-Dap-NMe-Trp + Acid 25] reads 0.00133; that for `CN1C(=O)[C@H](CNC(=O)/C=C/c2ccc(OCc3ccccc3)cc2)NC(=O)C2(CC2)CNC(=O)CCSSCCNC(=O)[C@@H]1Cc1c[nH]c2ccccc12` [X-Amcp-Dap-NMe-Trp + Acid 110], 0.015.
